Test results: paper PMC4995014, “Identification of ABC Transporter Interaction of a Novel Cyanoquinoline Radiotracer and Implications for Tumour Imaging by Positron Emission Tomography” (PLoS ONE, 2016)

Experiments:
MCF7 cells [1] = assay: SRB cell viability assay in MCF7 cells; format: cell-based; conditions: Homo sapiens, 72 h
Method: (§1) Cell viability by the sulforhodamine B (SRB) assay was used to assess cell growth and cytotoxicity of test compounds [29]. Cells were seeded at densities of 3,500 to 5,000 cells per well in 96 well plates overnight and pre-treated for 1 h with ABC transporter modulators: 10 μM fumitremorgin C (FTC; in MCF7MX and MCF7 cells), or 0.3 μM of zosuquidar (in 3T3 and 3T3-MDR1). Cells were then treated with test compounds for 72 h, at 37°C. After drug treatment, cells were fixed by addition of 50% trichloroacetic acid (TCA), and the plates washed and dried to allow staining with 0.4% solution of sulforhodamine B (Sigma) in 1% acetic acid for 30 minutes. Excess dye was removed upon washing with 1% acetic acid. Plates were dried and bound protein was solubilised upon addition of 150 μL of 10 mM Tris base buffer. Absorbance was measured at 540 nm using Thermo Multiskan-Ex plate reader. Cell viability versus compound concentration curves were plotted as a percentage of control cells. The concentration of drug that gave 50% inhibition in cell growth (GI50) was extrapolated from these curves using the sigmoid curve fit with variable slope in Prism (GraphPad Prism version 5.01, GraphPad Software, San Diego California USA). Three to six replicate wells were used for each drug concentration and experiments were carried out on three separate occasions for each compound.

3T3-MDR1 cells [2] = assay: SRB cell viability assay in 3T3-MDR1 cells (ABCB1 expressing); format: cell-based; conditions: GI50 3T3-MDR1 over GI50 3T3, without zosuquidar
Method: as §1

ABCB1 (MDR1) = assay: as above; format: cell-based; conditions: mouse, 3T3-MDR1 cells (ABCB1 expressing), 72 h, SRB
Method: as §1

MCF7MX cells [3] = assay: SRB cell viability assay in MCF7MX cells (ABCG2 overexpressing); format: cell-based, human; conditions: for fold increase in GI50 in the ABCG2 overexpressing cell line: GI50 MCF7MX over GI50 MCF7, without FTC; for GI50: Homo sapiens, MCF7/MX, 72 h, SRB
Method: as §1

3T3 cells [4] = assay: SRB cell viability assay in 3T3 cells; format: cell-based; conditions: Mus musculus, NIH3T3, 72 h
Method: as §1

Caco2 transwell assay = format: in vitro ADME, human; conditions: human; for efflux ratio at 120 min: Caco-2, no inhibitor, 10 μM cyanoquinoline or 50 μM vinblastine, read-out: efflux ratio (Papp B-A / Papp A-B)
Method: The caco2 transwell assay was performed to assess permeability. Cells were seeded at a density of 60,000 cells per well in 24 well transwell plates (Millipore, Billerica, Massachutsetts, USA), and maintained in DMEM supplemented with […] glucose (20% FBS, 1% penicillin/streptomycin, 1% glutamine) for 21 days at 37°C in 5% CO2. After 21 days the cells differentiate into enterocytes and express all three MDR proteins, ABCB1 and ABCG2 at the apical side and ABCC1 on the basal side. On day 21, cells were washed three times with Hank's Balanced Salt Solution (HBSS) (Fisher scientific, Loughborough, UK) and the trans-epithelial electric resistance (TERR) was measured using an Epithelial Voltohmmeter (EVOM) (World Precision Instruments, Sarasota, USA); only transwells with TERR of 400 Ω/cm^2 or above were used for the experiment. Cells were treated either at the apical (n = 3) or basal (n = 3) side of the transwell by addition of 10 μM of cyanoquinoline compound or 50 μM vinblastine prepared in a volume of 400 μL HBSS (compound added to apical well) or 800 μL of HBSS (added to basal well). When transport inhibitors FTC (10 μM) or zosuquidar (0.3 μM) were used, they were added to both the apical and basal wells 1 h prior to drug treatment. After 1 h pre-treatment the medium was removed and cells were treated with the compounds prepared in HBSS containing FTC or Zosuquidar.
Plates were incubated in shaker incubator at 37°C and 60 rpm for 120 min. After incubation, 200 μL aliquots from the apical and the basal wells were collected and analysed using high performance liquid chromatography (HPLC). Samples were run on a Millipore Waters HPLC system which included a 717 plus autosampler and 2487 dual wavelength absorbance detector system. The stationary phase comprised of a Phenomenex Luna C18 reverse phase column (150 X 4.6 mm; 5 μm particle size). The mobile phase comprised water (0.1% TFA) and acetonitrile (0.1% TFA) (80:20 v/v) at a flow rate of 1 mL/min for all compounds except vinblastine. For vinblastine, the stationary phase comprised a Supelcosil LC-ABZ reverse phase column (5 × 4.6 mm; 5 μm particle size). The mobile phase comprised water (0.1% formic acid) and methanol (90:10 to 10:90 v/v gradient over 20 min). Peak areas corresponding to the compounds of interest were recorded. Using standard curves the areas under the curve were converted into concentrations of compound. The permeability coefficient (Papp) was calculated using the following equation [30]: Papp = (dQ/dt)/A C0, where A is the surface area of the transwell membrane in cm^2 (= 0.33 cm^2), C0 is the drug concentration in the donor chamber at time t = 0 and dQ/dt is the rate of transfer of the compound to the receiver chamber, determined from the slope of the graph concentration (dQ) versus time (dt). Papp values corresponding to absorption and secretion were assessed and used to calculate efflux ratio. Efflux ratio =(Papp B−A)/(Papp A−B) Where Papp A-B = Papp absorption and Papp B-A = Papp secretion.
The integrity of the caco2 cell membrane was assessed for each well following the experiment by addition of a 100 μM solution of […] (Sigma) in HBSS to the apical side of the plate. The plates were placed in the shaker incubator for 1 h at 37°C and 60 rpm. Samples from the basal wells were transferred into a 96 well plate and the levels of […] were assessed by measuring with an excitation of 450 nm and an emission of 540 nm using the PerkinElmer Wallac 1420 counter.

3T3 cells [5] = assay: Cell uptake assay in 3T3 cells; format: cell-based; conditions: 1 h incubation with 0.22 MBq
Method: (§2) [^18F]FED6 and [^18F]FED20 were synthesised as previously reported. To increase specific radioactivity of [^18F]FED20, we modified the synthesis by decreasing the amount of alkyne precursor from 1 mg down to 0.5 mg. While this had the desired effect of increasing the specific activity from 7.3 GBq/μmol up to 52 GBq/μmol, the conversion of the alkyne to the triazole product dropped from > 95% down to 45%. Cells were seeded in 6 well plates and [^18F]FED6 (0.22 MBq) or [^18F]FED20 (0.55 MBq or 0.74 MBq) added to each well and incubated at 37°C for 1 h. Media were then removed and cells were washed twice with PBS. The cells were trypsinised and centrifuged for 3 minutes at 2000 rpm to obtain a pellet. The cell pellet was washed once with PBS and resuspended in 200 μL of RIPA buffer. Cell lysates were transferred to gamma counting tubes and the radioactivity in the pellet was measured on a Packard Cobra II gamma counter, (Perkin-Elmer, Waltham, Massachusetts, USA). Protein concentrations of samples were evaluated using Pierce® BCA Protein Assay Kit (Thermo Scientific, Waltham, Massachusetts, USA). Data were expressed as background- and decay-corrected counts per minute (CCPMA) per μg of cellular protein.

MCF7 cells [6] = assay: Cell uptake assay in MCF7 cells; format: cell-based, human; conditions: 1 h incubation with 0.22 MBq
Method: as §2

H358 cells = assay: Cell uptake assay in H358 cells; format: cell-based; conditions: 1 h incubation with 0.22 MBq
Method: as §2

MCF7MX cells [7] = assay: Cell uptake assay in MCF7MX cells; format: cell-based, human
Method: SiRNA transfections were carried out using ON TARGET plus-SMARTpool siRNA or non-targeting siRNA (Dharmacon, Lafayette, Louisianna, USA); ABCG2, L-009924-00-0005 and scramble (non-targeting) D-001810-10-05. Lipofectamine RNAiMAX (Invitrogen UK) was used as the transfection reagent and was prepared as indicated on the product protocol. Cells were seeded in black 96 well plates in antibiotic free media. On the day of transfection, siRNA and Lipofectamine were separately diluted in opti-MEM media, mixed in a 1 to 1 ratio and incubated at room temperature for 20 min; the siRNA-Lipofectamine complexes were then added to the cells. Fresh media containing 1% penicillin streptomycin was added to the cells after 24 h followed by Hoechst fluorescent assays at 72 h.
as §2

3T3-MDR1 cells [8] = assay: Cell uptake assay in 3T3-MDR1 cells; format: cell-based
Method: as §2

[9] = 1 h pre-treatment with 10 μM FTC
[10] = with zosuquidar 0.3 μM (1 h pre-treatment), pre-treatment with 0.3 μM zosuquidar
[11] = pre-treatment with 0.3 μM zosuquidar

| GI50 (MCF7 cells [1]; [9]) [µM] | GI50 (MCF7 cells [1]; without FTC) [µM] | fold increase in GI50 in the ABCG2 overexpressing cell line (MCF7MX cells [3]) [fold] | GI50 (MCF7MX cells [3]; [9]) [µM] | GI50 (MCF7MX cells [3]; without FTC) [µM] | efflux ratio at 120 min (Caco2 transwell assay) | Compound | fold increase in GI50 in the ABCB1 overexpressing cell line (3T3-MDR1 cells [2]) [fold] | GI50 at 72 h (ABCB1 (MDR1); [10]) [µM] | GI50 at 72 h (ABCB1 (MDR1); without zosuquidar) [µM] | GI50 (3T3 cells [4]; [11]) [µM] | GI50 (3T3 cells [4]; without zosuquidar) [µM] | other results |
| --- | --- | --- | --- | --- | --- | --- | --- | --- | --- | --- | --- | --- |
| 2.55 ± 0.04 | 2.61 ± 0.07 | 1.7 | 1.54 ± 0.06 | 4.28 ± 0.23 | > 3 | CCOc1cc2ncc(C#N)c(Nc3ccc(F)c(Cl)c3)c2cc1NC(=O)/C=C/CN(C)C [EKB-569, pelitinib, reference compound] | 5.4 | 2.7 ± 0.8 | 5.75 ± 0.7 | 1.15 ± 0.6 | 1.06 ± 0.6 | – |
| 14.8 ± 8.54 | 14.9 ± 8.6 | 3.2 | 10.3 ± 5.95 | 27.6 ± 15.9 | > 3 | CCOc1cc2ncc(C#N)c(Nc3ccc(F)c(Cl)c3)c2cc1NC(=O)/C=C/CNC [FED2] | 5.1 | 5.9 ± 0.6 | 36 ± 1.1 | 4.5 ± 0.8 | 7 ± 1.2 | – |
| 11.2 ± 1.11 | 11.4 ± 1.36 | – | 10.1 ± 0.73 | 6.53 ± 0.34 | < 1 | CCOc1cc2ncc(C#N)c(Nc3ccc(F)c(Cl)c3)c2cc1N [FED14] | – | 12.2 ± 0.6 | 8.7 ± 0.7 | 14.8 ± 0.7 | 14.8 ± 0.7 | – |
| 0.00536 ± 0.00063 | 0.00512 ± 0.00074 | – | 0.00266 ± 0.00066 | 0.00208 ± 0.00041 | – | CC[C@]1(O)C[C@@H]2CN(CCc3c([nH]c4ccccc34)[C@@](C(=O)OC)(c3cc4c(cc3OC)N(C)[C@H]3[C@@](O)(C(=O)OC)[C@H](OC(C)=O)[C@]5(CC)C=CCN6CC[C@]43[C@@H]65)C2)C1 [Vinblastine, reference compound] | – | 0.0011 ± 0.0011 | 0.219 ± 0.0008 | 0.0015 ± 0.0012 | 0.0018 ± 0.001 | efflux ratio at 120 min, 50 μM (Caco2 transwell assay; Caco-2, pre-treatment with zosuquidar, read-out: efflux (permeability) ratio after pre-treatment with zosuquidar): 1.7 |
| – | – | – | – | – | – | CCOc1cc2ncc(C#N)c(Nc3ccc(F)c(Cl)c3)c2cc1NC(=O)/C=C/CNCc1cn(CC[18F])nn1 [[^18F]FED6, [^18F](2E)-N-{4-[(3-chloro-4-fluorophenyl)amino]-3-cyano-7-ethoxyquinolin-6-yl}-4-({[1-(2-fluoroethyl)-1H-1,2,3-triazol-4-yl]methyl}amino)-but-2-enamide] | – | – | – | – | – | protein normalised uptake in 3T3 cells (3T3 cells [5]): 22 CCPMA/μg of protein; protein normalised uptake in MCF7 cells (MCF7 cells [6]): 81 CCPMA/μg of protein; protein normalised uptake in H358 cells (H358 cells): 86 CCPMA/μg of protein; uptake in MCF7MX cells following ABCG2 siRNA (MCF7MX cells [7]; 25 nM ABCG2 siRNA 72 h, 1 h incubation with 0.22 MBq): 3.5 CCPMA/μg protein; uptake in scramble siRNA transfected MCF7MX cells (MCF7MX cells [7]; 25 nM scrambled siRNA 72 h, 1 h incubation with 0.22 MBq): 0.6 CCPMA/μg protein; fold increase of uptake in MCF7MX cells following FTC pre-treatment (MCF7MX cells [7]; 10 μM FTC for 1 h): 4 fold; uptake in MCF7MX cells following FTC pre-treatment (MCF7MX cells [7]; 10 μM FTC for 1 h, 1 h incubation with 0.22 MBq): 6 CCPMA/μg protein; uptake in MCF7MX cells following gefitinib pre-treatment (MCF7MX cells [7]; 10 μM gefitinib for 1 h, 1 h incubation with 0.22 MBq): 6.3 CCPMA/μg protein; protein normalised uptake in MCF7MX cells (MCF7MX cells [7]; 1 h incubation with 0.22 MBq): 7.7 CCPMA/μg of protein; fold increase of uptake in 3T3-MDR1 cells following zosuquidar pre-treatment (3T3-MDR1 cells [8]; 0.3 μM zosuquidar for 1 h): 19 fold; protein normalised uptake in 3T3-MDR1 cells (3T3-MDR1 cells [8]; 1 h incubation with 0.22 MBq): 0.7 CCPMA/μg of protein |

| Compound | GI50 (MCF7 cells [1]; [9]) [µM] | GI50 (MCF7 cells [1]; without FTC) [µM] | fold increase in GI50 in the ABCG2 overexpressing cell line (MCF7MX cells [3]) [fold] | GI50 (MCF7MX cells [3]; [9]) [µM] | GI50 (MCF7MX cells [3]; without FTC) [µM] | efflux ratio at 120 min (Caco2 transwell assay) | fold increase in GI50 in the ABCB1 overexpressing cell line (3T3-MDR1 cells [2]) [fold] | GI50 at 72 h (ABCB1 (MDR1); [10]) [µM] | GI50 at 72 h (ABCB1 (MDR1); without zosuquidar) [µM] | GI50 (3T3 cells [4]; [11]) [µM] | GI50 (3T3 cells [4]; without zosuquidar) [µM] | other results |
| --- | --- | --- | --- | --- | --- | --- | --- | --- | --- | --- | --- | --- |
| O=C1c2c(O)ccc(O)c2C(=O)c2c(NCCNCCO)ccc(NCCNCCO)c21 [Mitoxantrone, reference compound] | 6.62 ± 3.82 | 10.7 ± 6.18 | – | 22.8 ± 13.1 | 2500 ± 1440 | – | – | 57 ± 1 | 141 ± 1 | 197 ± 0.6 | 37 ± 0.8 | – |
